Test results published in ChEMBL document CHEMBL1201862, “PubChem BioAssay data set” (2004).
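Protocol summary: plate cells (96-well), add compound at 5 concentrations, incubate 48 h, interpolate endpoints linearly. Here, GI50 denotes the concentration required for 50% inhibition of growth.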 The source made the active and inactive calls. No stated cut-off is given here; in the data, active = GI50 up to about 1.1 µM and inactive = higher.

Columns and labels:
Assay in all cases: NCI anticancer screen, dose series, 48 h
UACC-257 = system: UACC-257
HT-29 = system: HT-29
NCI-H23 = system: NCI-H23
MDA-MB-231 = system: MDA-MB-231
SK-OV-3 = system: SK-OV-3
HCT-15 = system: HCT-15
KM12 = system: KM12
SNB-19 = system: SNB-19
MCF7 = system: MCF7
786-0 = system: 786-0
U-251 = system: U-251
MDA-N = system: MDA-N
BT-549 = system: BT-549
SW-620 = system: SW-620
MOLT-4 = system: MOLT-4
CCRF-CEM = system: CCRF-CEM
A498 = system: A498
HCT-116 = system: HCT-116
SF-295 = system: SF-295
UACC-62 = system: UACC-62

| SMILES | GI50 (UACC-257) | GI50 (HT-29) | GI50 (NCI-H23) | GI50 (MDA-MB-231) | GI50 (SK-OV-3) | GI50 (HCT-15) [µM] | GI50 (KM12) | GI50 (SNB-19) | GI50 (MCF7) | GI50 (786-0) | GI50 (U-251) | GI50 (MDA-N) | GI50 (BT-549) | GI50 (SW-620) | GI50 (MOLT-4) | GI50 (CCRF-CEM) | GI50 (A498) | GI50 (HCT-116) | GI50 (SF-295) | GI50 (UACC-62) |
| --- | --- | --- | --- | --- | --- | --- | --- | --- | --- | --- | --- | --- | --- | --- | --- | --- | --- | --- | --- | --- |
| COc1ccc(C2c3cc4c(cc3OC(NNS(=O)(=O)c3ccc(C)cc3)C2C)OCO4)cc1 (stereo not given) | 52.6 µM (inactive) | 93.8 µM (inactive) | 99.8 µM (inactive) | > 100 µM (inactive) | > 100 µM (inactive) | 70.1 | 65.9 µM (inactive) | > 100 µM (inactive) | 41.1 µM (inactive) | 50.1 µM (inactive) | 83.4 µM (inactive) | 58.3 µM (inactive) | 53.5 µM (inactive) | 73.5 µM (inactive) | 13.1 µM (inactive) | 11.1 µM (inactive) | 78.5 µM (inactive) | 45.9 µM (inactive) | 21.9 µM (inactive) | 71.6 µM (inactive) |
| O=C(CCc1cc(O)ccc1O)OCCc1ccccc1 | 12.4 µM (inactive) | 41.1 µM (inactive) | 32.7 µM (inactive) | 15.6 µM (inactive) | > 100 µM (inactive) | 11.1 | 8.53 µM (inactive) | 48.5 µM (inactive) | 15.8 µM (inactive) | 9.53 µM (inactive) | 13.6 µM (inactive) | 12.7 µM (inactive) | 11.5 µM (inactive) | 16.3 µM (inactive) | 1.36 µM (inactive) | 0.313 µM (active) | > 100 µM (inactive) | 13 µM (inactive) | 37.5 µM (inactive) | 12.4 µM (inactive) |
| COc1ccc([C@H]2[C@H]3COC(=O)[C@H]3C(C#N)=C3Sc4ccccc4N32)cc1 | 40.6 µM (inactive) | 12.4 µM (inactive) | 22.8 µM (inactive) | 28.3 µM (inactive) | 39.9 µM (inactive) | 25.8 | 27.2 µM (inactive) | 48.3 µM (inactive) | 27.3 µM (inactive) | 36.7 µM (inactive) | 24.6 µM (inactive) | 28.8 µM (inactive) | 5.37 µM (inactive) | 48.6 µM (inactive) | 13.4 µM (inactive) | 11.9 µM (inactive) | 43.7 µM (inactive) | 21.7 µM (inactive) | 16.3 µM (inactive) | 28.8 µM (inactive) |
| O=C(CNc1ccc(Cl)cc1)Nn1c(-c2ccccc2)nc2ccccc2c1=O | 12.8 µM (inactive) | 6.27 µM (inactive) | 5.43 µM (inactive) | 4.79 µM (inactive) | 10.1 µM (inactive) | 6.7 | 10.8 µM (inactive) | 10.8 µM (inactive) | 3.32 µM (inactive) | 4.18 µM (inactive) | 3.47 µM (inactive) | 7.38 µM (inactive) | 2.32 µM (inactive) | 5.12 µM (inactive) | 2.49 µM (inactive) | 2.04 µM (inactive) | 14.9 µM (inactive) | 1.62 µM (inactive) | 15.1 µM (inactive) | 3.89 µM (inactive) |
| Cc1cc(-c2ccc[nH]2)on1 | > 100 µM (inactive) | > 100 µM (inactive) | > 100 µM (inactive) | > 100 µM (inactive) | > 100 µM (inactive) | > 100 | > 100 µM (inactive) | > 100 µM (inactive) | > 100 µM (inactive) | > 100 µM (inactive) | > 100 µM (inactive) | > 100 µM (inactive) | > 100 µM (inactive) | > 100 µM (inactive) | > 100 µM (inactive) | > 100 µM (inactive) | > 100 µM (inactive) | > 100 µM (inactive) | > 100 µM (inactive) | > 100 µM (inactive) |
| O=C(O)c1ccccc1/C=C1\Cc2cc3c(cc2C1=O)CCC3 | 26.5 µM (inactive) | 19.2 µM (inactive) | 18.1 µM (inactive) | 20.3 µM (inactive) | 36.2 µM (inactive) | 16.3 | 19.2 µM (inactive) | 26.7 µM (inactive) | 20.7 µM (inactive) | 29 µM (inactive) | 30.1 µM (inactive) | 11.9 µM (inactive) | 56.9 µM (inactive) | 21.8 µM (inactive) | 17.4 µM (inactive) | 18.8 µM (inactive) | 30.8 µM (inactive) | 27.9 µM (inactive) | 24 µM (inactive) | 16.9 µM (inactive) |
| O=C1c2cscc2C(=O)C1(O)O | 24.9 µM (inactive) | 70 µM (inactive) | 22.1 µM (inactive) | 74.1 µM (inactive) | > 100 µM (inactive) | 45.8 | > 100 µM (inactive) | > 100 µM (inactive) | > 100 µM (inactive) | 61.5 µM (inactive) | > 100 µM (inactive) | 40.4 µM (inactive) | 31.5 µM (inactive) | 20.4 µM (inactive) | 22.5 µM (inactive) | 23.7 µM (inactive) | > 100 µM (inactive) | 21.3 µM (inactive) | > 100 µM (inactive) | > 100 µM (inactive) |
| O=C(O)C1C(C(=O)O)C2C(=O)C=CC1N2Cc1ccccc1 (stereo not given) | 2.62 µM (inactive) | 3.12 µM (inactive) | 2.27 µM (inactive) | 3.16 µM (inactive) | 5.35 µM (inactive) | 2.46 | 3.61 µM (inactive) | 5.55 µM (inactive) | 4.63 µM (inactive) | 2.49 µM (inactive) | 3.52 µM (inactive) | 2.56 µM (inactive) | 4.57 µM (inactive) | 2.65 µM (inactive) | 3.54 µM (inactive) | 0.383 µM (active) | 20.3 µM (inactive) | 3.68 µM (inactive) | 11.3 µM (inactive) | 7.96 µM (inactive) |
| CC1(C)OCC(C2OC(OC(=O)c3ccc(C(F)(F)F)cc3)C3OC(C)(C)OC23)O1 (stereo not given) | > 77.4 µM (inactive) | 73.1 µM (inactive) | 58.3 µM (inactive) | 63 µM (inactive) | > 77.4 µM (inactive) | > 77.4 | 72.3 µM (inactive) | > 77.4 µM (inactive) | 53.3 µM (inactive) | 46.5 µM (inactive) | 57.8 µM (inactive) | > 77.4 µM (inactive) | > 77.4 µM (inactive) | > 77.4 µM (inactive) | 38 µM (inactive) | 28.2 µM (inactive) | > 77.4 µM (inactive) | > 77.4 µM (inactive) | > 77.4 µM (inactive) | > 77.4 µM (inactive) |
| Cc1nc2c(N3CCCC3)nc(N3CCNCC3)nc2nc1NCc1ccccc1 | 1.94 µM (inactive) | 2.41 µM (inactive) | 8.85 µM (inactive) | 2.95 µM (inactive) | 7.69 µM (inactive) | 2.09 | 2.84 µM (inactive) | 5.66 µM (inactive) | 2.33 µM (inactive) | 4.9 µM (inactive) | 3.2 µM (inactive) | 1.61 µM (inactive) | 2.4 µM (inactive) | 2.36 µM (inactive) | 2.52 µM (inactive) | 2.4 µM (inactive) | 4.79 µM (inactive) | 1.62 µM (inactive) | 2.04 µM (inactive) | 2.79 µM (inactive) |
| O=C(/C=C/c1cc2ccccc2o1)N1CCN(c2ccccn2)CC1 | > 100 µM (inactive) | 68.7 µM (inactive) | > 100 µM (inactive) | 90.2 µM (inactive) | > 100 µM (inactive) | 74.6 | 87.5 µM (inactive) | > 100 µM (inactive) | 57.5 µM (inactive) | > 100 µM (inactive) | > 100 µM (inactive) | > 100 µM (inactive) | > 100 µM (inactive) | > 100 µM (inactive) | 19 µM (inactive) | > 100 µM (inactive) | > 100 µM (inactive) | 85.3 µM (inactive) | > 100 µM (inactive) | 86.7 µM (inactive) |
| O=C(O)CCSCc1ccccc1 | > 100 µM (inactive) | > 100 µM (inactive) | > 100 µM (inactive) | > 100 µM (inactive) | > 100 µM (inactive) | > 100 | > 100 µM (inactive) | > 100 µM (inactive) | > 100 µM (inactive) | > 100 µM (inactive) | > 100 µM (inactive) | > 100 µM (inactive) | > 100 µM (inactive) | > 100 µM (inactive) | > 100 µM (inactive) | > 100 µM (inactive) | > 100 µM (inactive) | > 100 µM (inactive) | > 100 µM (inactive) | > 100 µM (inactive) |
| O=C1c2ccccc2C(=O)c2c(/C=C\N3CCCCC3)ccnc21 | 1.02 µM (active) | 5.57 µM (inactive) | 0.644 µM (active) | 19.1 µM (inactive) | 15.7 µM (inactive) | 0.582 | 3.97 µM (inactive) | 4.91 µM (inactive) | 0.869 µM (active) | 6.35 µM (inactive) | 2.99 µM (inactive) | 0.383 µM (active) | 0.889 µM (active) | 0.839 µM (active) | 6.84 µM (inactive) | 3.78 µM (inactive) | 8.99 µM (inactive) | 1.06 µM (active) | 2.47 µM (inactive) | 0.659 µM (active) |
| CC1=C2c3ccccc3N(S(=O)(=O)c3ccccc3)[C@H]2[C@H](C(=O)N2C3CC4CC[C@@]3(CS2(=O)=O)C4(C)C)CC1 (stereo not given in full) | 33.7 µM (inactive) | 17.6 µM (inactive) | 40.6 µM (inactive) | > 100 µM (inactive) | 22.1 µM (inactive) | 5.36 | 49.5 µM (inactive) | 24.9 µM (inactive) | 18 µM (inactive) | 0.41 µM (active) | 6.59 µM (inactive) | > 10 µM (inactive) | 8.28 µM (inactive) | > 100 µM (inactive) | 6.38 µM (inactive) | 35.3 µM (inactive) | 87.9 µM (inactive) | 11.7 µM (inactive) | 1.71 µM (inactive) | 9.55 µM (inactive) |
